How the values were obtained:
Epstein Barr virus = assay: Treatment of Epstein Barr (Example XIII); format: in vivo, human; conditions: thirty five individuals; 200 mg in 1 liter alkaline water pH 11 twice daily for three months
Description: Thirty five individuals with Epstein Barr virus were administered a solution comprising, 1 liter of Alkaline water prepared as described in Example XI and diluted with non-chlorinated drinking water to a pH of 11 mixed with 200 mg of columbianitin extracted from Lomatium Disectum, twice daily for three months.

candadiasis = assay: Treatment of candadiasis (Example XIV); format: in vivo, human; conditions: 25 individuals; 200 mg in 1 liter alkaline water pH 11 twice daily for three months
Description: (§1) 25 individuals with candadiasis were administered a solution comprising, 1 liter of Alkaline water prepared as described in Example XI and diluted with non-chlorinated drinking water to a pH of 11 mixed with 200 mg of columbianitin extracted from Lomatium Disectum, twice daily for three months.

Lyme Disease = assay: Treatment of Lyme Disease (Example XII); format: in vivo, human; conditions: five individuals; 200 mg in 1 liter alkaline water pH 11 twice daily for three months
Description: as §1, with “Five” for “25”, “positive for Lyme Disease” for “with candadiasis”, “comprising” for “comprising,”, “Disectum” for “Disectum,”

[1] = test system: Methicillin Resistant Staphylococcus aureus (MRSA); assay: Treatment of MRSA (Example XV); format: in vivo, human; conditions: three individuals; 200 mg in 1 liter alkaline water pH 11 twice daily for three months
Description: as §1, with “Three” for “25”, “suffering from MRSA” for “with candadiasis”

breast cancer = assay: Treatment of breast cancer patients (Example IX); format: in vivo, human
Excerpt: Forty-three of the patients in the study of Example VIII suffered from breast cancer. These forty-three were divided into four groups. One group of 7 was given the glycome solution of Example II; a group of five was given the glycome solution of Example II in combination with chemotherapy; a group of thirteen was given the glycome solution of Example II in combination with chemotherapy and Poly-MVA® (AMARC Enterprises, Inc., Spring Valley, Calif.) (blend of Palladium and alpha-lipoic Acid, Vitamins B1, B2 and B12, Formylmethionine, Acetyl Cystiene, and trace amounts of Molybdinum, Rhodium, and Ruthenium); and the remaining eighteen were given a combination of the glycome solution of Example II and Poly-MVA® (AMARC Enterprises, Inc., Spring Valley, Calif.) without chemotherapy. Patients receiving the glycome solution were given a solution containing three grams of the powder isolated in Example I a day intravenously for five days then six capsules containing a total of 3 g/day of para-hydroxyl-benzaldehyde-O-B-D-allopyranoside formulated according to Example IV and two capsules containing the formulation of Example V orally for two days, repeating for four weeks. They were then given six capsules containing a total of 3 g/day of para-hydroxyl-benzaldehyde-O-B-D-allopyranoside formulated according to Example IV and two capsules containing the formulation of Example V orally per day until they entered remission.

[2] = test system: varying malignancies including neuroendocrine cancer, nasal adenocarcinoma, brain stem tumor, thymoma, and histiocytoma; assay: Treatment of dogs with varying malignancies (Example X); format: in vivo, dog; conditions: eight dogs; IV five days a week for three weeks, then 1 to 2 grams methacrylate coated para-hydroxyl-benzaldehyde-O-B-D-allopyranoside in food; some also acupuncture/alkaline water
Description: Eight dogs weighing between 60 and 80 pounds with varying malignancies including neuroendocrine cancer, nasal adenocarcinoma, brain stem tumor, thymoma, and histiocytoma were treated with 6 cc of the DMSO solution of Example II diluted in 200 cc saline administered intravenously five days a week for three weeks. The dogs were then given 1 to 2 grams of methacrylate coated para-hydroxyl-benzaldehyde-O-B-D-allopyranoside in their food seven days a week until they entered remission. Six of the dogs also received acupuncture and one received acupuncture and alkaline water.

| Structure (SMILES) | Epstein Barr virus test at the end of three months (Epstein Barr virus) | skin infections at the end of three months (candadiasis) | vaginal infections at the end of three months (candadiasis) | Lyme disease test at the end of three months (Lyme Disease) | clinical outcome at the end of three months [1] | breast cancer patients survived for at least two years, overall (breast cancer; all forty-three breast cancer patients, all four treatment groups) | breast cancer patients survived (breast cancer; group of eighteen, combination with Poly-MVA without chemotherapy) | breast cancer patients survived (breast cancer; group of five, combination with chemotherapy) | tumor response [2] |
| --- | --- | --- | --- | --- | --- | --- | --- | --- | --- |
| CC(C)(O)[C@@H]1Cc2c(ccc3ccc(=O)oc23)O1 [columbianitin] | all thirty-five individuals tested negative | resolved | remained the same | all five individuals tested negative | all three individuals improved considerably | – | – | – | – |
| O=Cc1ccc(O[C@@H]2O[C@H](CO)[C@@H](O)[C@@H](O)[C@H]2O)cc1 [para-hydroxyl-benzaldehyde-O-B-D-allopyranoside] | – | – | – | – | – | 79% | seventy-eight | 100% | significant reduction or elimination of the tumor |
